Data reported in PMC6433232, “Targeting mitochondria in cancer therapy could provide a basis for the selective anti-cancer activity” (PLoS ONE, 2019).
“And” between values parts separate entries of the source, which are not always exact repeats. Identical values can stand only once. Like-named read-outs stand apart in the source and are kept apart here.

Assays:
[1] = tested on: pancreatic cancer MIA PaCa-2 cells; test: cells; conditions: Homo sapiens, MIA PaCa-2, read-out: EC50, μM MIA PaCa-2
Protocol: Fig 1 A, Structure of NSC130362. B, Dose response curve of NSC130362 in MIA PaCa-2 cells. Cells were pre-incubated with NSC130362 for 2 h followed by addition of ATO (5 μM) and incubation for an additional 24 h. At the end of the treatment, the ratio of dead cells was determined by a CellTiterGlo reagent.

[2] = tested on: human primary hepatocytes; test: cells; conditions: Hepatocyte, read-out: EC50, μM Hepatocytes
Text: We selected hepatocytes as normal cells because hepatocytes are mediate toxicity to multiple drugs and are used as a standard to assess toxicity of drugs in vitro [28]. […] For comparison with the standard of care, doxorubicin was also included in this analysis.

[3] = tested on: primary acute myeloid leukemia (AML) cells obtained from patients; test: Kinase inhibitor library screening with and without NSC130362, primary AML cells; format: cell-based, Human
[4] = ratio of EC50 for inhibitor to EC50 for inhibitor/NSC130362 combination, NSC130362 10 μM, Screen N 1
[5] = ratio of EC50 for inhibitor to EC50 for inhibitor/NSC130362 combination, NSC130362 10 μM, Screen N 2
[6] = ratio of EC50 for inhibitor to EC50 for inhibitor/NSC130362 combination, NSC130362 10 μM, Screen N 3

O=C1C(Cl)=C(NNC(=O)C(F)(F)F)C(=O)c2ccccc21 [compound 35]
EC50 [1]: 8 µM | EC50 [2]: 11.5 µM

CC(C)CNC1=C(Cl)C(=O)c2ccccc2C1=O [compound 12]
EC50 [1]: > 90 µM | EC50 [2]: > 90 µM

O=C1C=CC(=O)c2ccccc21 [compound 56, 1,4-NQ, reference compound]
EC50 [1]: 9.2 µM | EC50 [2]: 1.8 µM

O=C1C(Cl)=C(Nc2ccccn2)C(=O)c2ccccc21 [compound 37]
EC50 [1]: 5.2 µM | EC50 [2]: 6 µM

O=C(NC1CCNCC1)c1[nH]ncc1NC(=O)c1c(Cl)cccc1Cl [AT7519]
EC50 decrease, fold (Screen N 1) [3, 4]: 9.7 fold | EC50 decrease, fold (Screen N 2) [3, 5]: 2.2 fold | EC50 decrease, fold (Screen N 3) [3, 6]: 1.1 fold

COCCn1c2c([n+](Cc3cnccn3)c1C)C(=O)c1ccccc1C2=O [YM-155]
EC50 decrease, fold (Screen N 1) [3, 4]: 10.9 fold | EC50 decrease, fold (Screen N 2) [3, 5]: 4.4 fold | EC50 decrease, fold (Screen N 3) [3, 6]: 1.0 fold

Cc1cn(-c2cc(NC(=O)c3ccc(C)c(Nc4nccc(-c5cccnc5)n4)c3)cc(C(F)(F)F)c2)cn1 [Nilotinib]
EC50 decrease, fold (Screen N 2) [3, 5]: 1.0 fold | EC50 decrease, fold (Screen N 3) [3, 6]: 1.0 fold

C#Cc1cccc(Nc2ncnc3cc(OCCOC)c(OCCOC)cc23)c1 [Erlotinib]
EC50 decrease, fold (Screen N 2) [3, 5]: 1.0 fold

Cn1nccc1Nc1nccc(-c2ccn([C@H](CO)c3ccc(Cl)c(F)c3)c(=O)c2)n1 [GDC-0994]
EC50 decrease, fold (Screen N 2) [3, 5]: 1.0 fold

CS(=O)(=O)c1ccc(C(=O)Nc2ccc(Cl)c(-c3ccccn3)c2)c(Cl)c1 [Vismodegib (GDC-0449)]
EC50 decrease, fold (Screen N 1) [3, 4]: 1.0 fold | EC50 decrease, fold (Screen N 2) [3, 5]: 1.0 fold | EC50 decrease, fold (Screen N 3) [3, 6]: 1.0 fold

Oc1nc(-c2ccc(C(F)(F)F)cc2)nc2c1CSCC2 [XAV-939]
EC50 decrease, fold (Screen N 1) [3, 4]: 6.5 fold | EC50 decrease, fold (Screen N 2) [3, 5]: 1.0 fold | EC50 decrease, fold (Screen N 3) [3, 6]: 1.0 fold

Cc1c[nH]c(-c2cnc(NCCNc3ccc(C#N)cn3)nc2-c2ccc(Cl)cc2Cl)n1 [CHIR-99021]
EC50 decrease, fold (Screen N 1) [3, 4]: 1.0 fold | EC50 decrease, fold (Screen N 2) [3, 5]: 1.0 fold | EC50 decrease, fold (Screen N 3) [3, 6]: 1.0 fold

Cc1ccc(Nc2nccc(N(C)c3ccc4c(C)n(C)nc4c3)n2)cc1S(N)(=O)=O [Pazopanib (GW786034)]
EC50 decrease, fold (Screen N 1) [3, 4]: 1.0 fold | EC50 decrease, fold (Screen N 2) [3, 5]: 1.0 fold | EC50 decrease, fold (Screen N 3) [3, 6]: 193.3 fold and 170.6 fold

COc1ccc(C2=N[C@@H](c3ccc(Cl)cc3)[C@@H](c3ccc(Cl)cc3)N2C(=O)N2CCNC(=O)C2)c(OC(C)C)c1 [Nutlin 3a]
EC50 decrease, fold (Screen N 1) [3, 4]: 0.1 fold | EC50 decrease, fold (Screen N 2) [3, 5]: 1.0 fold | EC50 decrease, fold (Screen N 3) [3, 6]: 0.9 fold

Nc1nc(N)c2nc(-c3cccc(O)c3)c(-c3cccc(O)c3)nc2n1 [TG100-115]
EC50 decrease, fold (Screen N 1) [3, 4]: 1.8 fold | EC50 decrease, fold (Screen N 2) [3, 5]: 1.0 fold | EC50 decrease, fold (Screen N 3) [3, 6]: 1.0 fold

COc1cc(N2CCC(N3CCN(C)CC3)CC2)ccc1Nc1ncc(Cl)c(Nc2ccccc2P(C)(C)=O)n1 [Brigatininb (AP-26113)]
EC50 decrease, fold (Screen N 1) [3, 4]: 0.0179 fold | EC50 decrease, fold (Screen N 3) [3, 6]: 1.8 fold

CCN(CC)CCNC(=O)c1c(C)[nH]c(/C=C2\C(=O)Nc3ccc(F)cc32)c1C [Sunitinib]
EC50 decrease, fold (Screen N 2) [3, 5]: 1.0 fold

CNC(=O)c1cc(Oc2ccc(NC(=O)Nc3ccc(Cl)c(C(F)(F)F)c3)c(F)c2)ccn1 [Regorafenib (BAY 73-4506)]
EC50 decrease, fold (Screen N 1) [3, 4]: 1.0 fold | EC50 decrease, fold (Screen N 2) [3, 5]: 1.2 fold | EC50 decrease, fold (Screen N 3) [3, 6]: 0.0284 fold

CC(C)(C)c1cnc(CSc2cnc(NC(=O)C3CCNCC3)s2)o1 [SNS-032 (BMS-387032)]
EC50 decrease, fold (Screen N 1) [3, 4]: 6.0 fold | EC50 decrease, fold (Screen N 2) [3, 5]: 0.9 fold | EC50 decrease, fold (Screen N 3) [3, 6]: 14.0 fold

O=C(c1ccc(/C=C/c2n[nH]c3ccccc23)cc1)N1CCNCC1 [KW-2449]
EC50 decrease, fold (Screen N 1) [3, 4]: 1.6 fold | EC50 decrease, fold (Screen N 2) [3, 5]: 1.0 fold | EC50 decrease, fold (Screen N 3) [3, 6]: 0.9 fold

O=C(O)c1ccc(Nc2ncc3c(n2)-c2ccc(Cl)cc2C(c2c(F)cccc2F)=NC3)cc1 [MLN8054]
EC50 decrease, fold (Screen N 1) [3, 4]: 1.3 fold | EC50 decrease, fold (Screen N 2) [3, 5]: 1.0 fold | EC50 decrease, fold (Screen N 3) [3, 6]: 0.001 fold

CN(NC(=O)CC(=O)NN(C)C(=S)c1ccccc1)C(=S)c1ccccc1 [Elesclomol]
EC50 decrease, fold (Screen N 1) [3, 4]: 1.1 fold | EC50 decrease, fold (Screen N 2) [3, 5]: 302.2 fold | EC50 decrease, fold (Screen N 3) [3, 6]: 1.1 fold

Cc1ccc(C(=O)Nc2ccc(CN3CCN(C)CC3)c(C(F)(F)F)c2)cc1C#Cc1cnc2cccnn12 [Ponatinib (AP24534)]
EC50 decrease, fold (Screen N 2) [3]: 0.9 fold and 1.1 fold

COc1cc2/c(=N/c3ccc(Br)cc3F)nc[nH]c2cc1OCC1CCN(C)CC1 [Vandetanib (ZD6474)]
EC50 decrease, fold (Screen N 1) [3, 4]: 0.5 fold | EC50 decrease, fold (Screen N 2) [3, 5]: 1.0 fold

JAK Inhibitor I
EC50 decrease, fold (Screen N 1) [3, 4]: 0.847 fold | EC50 decrease, fold (Screen N 2) [3, 5]: 1.0 fold | EC50 decrease, fold (Screen N 3) [3, 6]: 46.2 fold

Cc1[nH]c(/C=C2\C(=O)Nc3ccc(S(=O)(=O)Cc4c(Cl)cccc4Cl)cc32)c(C)c1C(=O)N1CCC[C@@H]1CN1CCCC1 [PHA-665752]
EC50 decrease, fold (Screen N 1) [3, 4]: 1.1 fold | EC50 decrease, fold (Screen N 2) [3, 5]: 1.0 fold | EC50 decrease, fold (Screen N 3) [3, 6]: 0.226 fold

COc1cc(Nc2c(C#N)cnc3cc(OCCCN4CCN(C)CC4)c(OC)cc23)c(Cl)cc1Cl [Bosutinib (SKI-606)]
EC50 decrease, fold (Screen N 1) [3, 4]: 15.8 fold | EC50 decrease, fold (Screen N 2) [3, 5]: 1.0 fold | EC50 decrease, fold (Screen N 3) [3, 6]: 29.6 fold

COCCNCc1ccc(-c2cc3nccc(Oc4ccc(NC(=S)NC(=O)Cc5ccc(F)cc5)cc4F)c3s2)nc1 [MGCD-265]
EC50 decrease, fold (Screen N 1) [3, 4]: 6.0 fold | EC50 decrease, fold (Screen N 2) [3, 5]: 1.0 fold | EC50 decrease, fold (Screen N 3) [3, 6]: 97.6 fold

Cc1cc(Nc2nc(N[C@@H](C)c3ncc(F)cn3)ncc2Cl)n[nH]1 [AZD1480]
EC50 decrease, fold (Screen N 1) [3, 4]: 497.3 fold | EC50 decrease, fold (Screen N 2) [3, 5]: 1.0 fold | EC50 decrease, fold (Screen N 3) [3, 6]: 0.365 fold

N#CCNC(=O)c1ccc(-c2ccnc(Nc3ccc(N4CCOCC4)cc3)n2)cc1 [CYT387]
EC50 decrease, fold (Screen N 1) [3, 4]: 0.117 fold | EC50 decrease, fold (Screen N 2) [3, 5]: 1.0 fold | EC50 decrease, fold (Screen N 3) [3, 6]: 320.1 fold

Nc1ncn([C@@H]2O[C@H](CO)[C@@H](O)[C@H]2O)c(=O)n1 [Azacytidine]
EC50 decrease, fold (Screen N 1) [3, 4]: 1.1 fold | EC50 decrease, fold (Screen N 2) [3, 5]: 1.0 fold | EC50 decrease, fold (Screen N 3) [3, 6]: 266.4 fold

Cc1ccc(NC(=O)c2ccc(CN3CCN(C)CC3)cc2)cc1Nc1nc(-c2cccnc2)cs1 [Masitinib (AB-1010)]
EC50 decrease, fold (Screen N 1) [3]: 0.174 fold | EC50 decrease, fold (Screen N 2) [3]: 1.0 fold | EC50 decrease, fold (Screen N 3) [3]: 3.7 fold

CN(C)CC(=O)N1CCC(c2ccc(NC(=O)c3nc(C#N)c[nH]3)c(C3=CCCCC3)c2)CC1 [JNJ-28312141]
EC50 decrease, fold (Screen N 1) [3, 4]: 0.3 fold | EC50 decrease, fold (Screen N 2) [3, 5]: 1.0 fold | EC50 decrease, fold (Screen N 3) [3, 6]: 2.3 fold

Cc1ccc2nc(NC(=O)CSc3nc4c(c(=O)n3-c3ccccc3)SCC4)sc2c1 [IWP2]
EC50 decrease, fold (Screen N 2) [3, 5]: 1.0 fold

COc1cc(N2CCC(N3CCN(C)CC3)CC2)ccc1Nc1ncc(Cl)c(Nc2ccccc2S(=O)(=O)C(C)C)n1 [NVP-TAE684]
EC50 decrease, fold (Screen N 1) [3, 4]: 0.55 fold | EC50 decrease, fold (Screen N 2) [3, 5]: 1.0 fold | EC50 decrease, fold (Screen N 3) [3, 6]: 0.755 fold

N#CC[C@H](C1CCCC1)n1cc(-c2ncnc3[nH]ccc23)cn1 [Ruxolitinib (INCB018424)]
EC50 decrease, fold (Screen N 2) [3, 5]: 1.0 fold

CC(C)(C)c1ccc(S(=O)(=O)/C=C/C#N)cc1 [Bay 11-7085]
EC50 decrease, fold (Screen N 1) [3, 4]: 69.0 fold | EC50 decrease, fold (Screen N 2) [3, 5]: 1.0 fold | EC50 decrease, fold (Screen N 3) [3, 6]: 221.9 fold

OCCn1cc(-c2ccc3c(c2)CC/C3=N\O)c(-c2ccncc2)n1 [GDC-0879]
EC50 decrease, fold (Screen N 1) [3, 4]: 0.9 fold | EC50 decrease, fold (Screen N 2) [3, 5]: 1.0 fold | EC50 decrease, fold (Screen N 3) [3, 6]: 952.6 fold

Cc1[nH]c2ccc(F)cc2c1-c1nc2c3cccnc3c3ncccc3c2[nH]1 [APTO-253]
EC50 decrease, fold (Screen N 2) [3, 5]: 1.0 fold

NC1(c2ccc(-c3nc4ccn5c(=O)[nH]nc5c4cc3-c3ccccc3)cc2)CCC1 [MK-2206]
EC50 decrease, fold (Screen N 1) [3, 4]: 15.9 fold | EC50 decrease, fold (Screen N 2) [3, 5]: 1.0 fold | EC50 decrease, fold (Screen N 3) [3, 6]: 1.0 fold

Cc1sc2c(c1C)C(c1ccc(Cl)cc1)=N[C@@H](CC(=O)Nc1ccc(O)cc1)c1nnc(C)n1-2 [OTX-015]
EC50 decrease, fold (Screen N 2) [3, 5]: 0.8 fold

CC(C)(C)c1cc(NC(=O)Nc2ccc(-c3cn4c(n3)sc3cc(OCCN5CCOCC5)ccc34)cc2)no1 [Quizartinib (AC220)]
EC50 decrease, fold (Screen N 2) [3, 5]: 1.0 fold

CN(C)CC[C@H](CSc1ccccc1)Nc1ccc(S(=O)(=O)NC(=O)c2ccc(N3CCN(Cc4ccccc4-c4ccc(Cl)cc4)CC3)cc2)cc1[N+](=O)[O-] [ABT-737]
EC50 decrease, fold (Screen N 1) [3, 4]: 5.4 fold | EC50 decrease, fold (Screen N 2) [3, 5]: 1.0 fold | EC50 decrease, fold (Screen N 3) [3, 6]: 0.000857 fold

N[C@@H]1CCCN(c2c(Br)cnc3[nH]cc(NC(=O)C4CC4)c23)C1 [GDC-0575]
EC50 decrease, fold (Screen N 2) [3, 5]: 1.0 fold

CSc1cccc(Nc2ncc3cc(-c4c(Cl)cccc4Cl)c(=O)n(C)c3n2)c1 [PD173955]
EC50 decrease, fold (Screen N 1) [3, 4]: 0.9 fold | EC50 decrease, fold (Screen N 2) [3, 5]: 1.0 fold | EC50 decrease, fold (Screen N 3) [3, 6]: 5.1 fold

CNC(=O)c1c(F)cccc1Nc1nc(Nc2cc3c(cc2OC)CCN3C(=O)CN(C)C)nc2[nH]ccc12 [GSK-1838705A]
EC50 decrease, fold (Screen N 1) [3, 4]: 257.7 fold | EC50 decrease, fold (Screen N 2) [3, 5]: 1.0 fold | EC50 decrease, fold (Screen N 3) [3, 6]: 522.0 fold

COc1ccc(COc2ccc(Cc3cnc(N)nc3N)cc2OC)cc1 [GW-2580]
EC50 decrease, fold (Screen N 2) [3, 5]: 1.0 fold
